Measured values from patent US20140113904A1, “TREATMENT OF CANCER WITH TOR KINASE INHIBITORS” (SIGNAL PHARMACEUTICALS, LLC, priority 2012, published 2014).

Tests used:
PC3 tumors [1] = assay: Apoptosis TUNEL assay in PC3 tumors (Compound 2); assay type: in vivo, SCID mice; details: 5 mg/kg oral QD for 6 days, data not shown
PC3 tumors [2] = assay: Antitumor activity of Compound 1 in PC3 human prostate cancer xenograft model; assay type: in vivo, SCID mice; details: for tumor volume reduction compared with vehicle control: Day 31; for tumor volume reduction compared to vehicle control / tumor inhibition compared to vehicle control: day 31
Experimental: The BID dose groups were dosed with a 10-hour separation between the morning and evening doses. […] At the end of each study, plasma and/or tumor samples were collected.
PC3 cell line was obtained from American Tissue Culture Collection (ATCC) (Gaithersberg, Md.) and grown in growth medium containing Ham's F12K medium with 2 mM L-glutamine adjusted to contain 1.5 g/L sodium bicarbonate and 10% of fetal bovine serum. The cells were detached from tissue culture flasks using trypsin-EDTA. After centrifugation, the cell pellets were suspended in phosphate buffered saline (PBS) and counted using a hemocytometer.
Mice were anesthetized with inhaled isoflurane and then inoculated with PC3 tumor cells subcutaneously on the right hind leg with 0.1 mL of single cell suspensions in Matrigel using a sterile 1 mL syringe fitted with a 26 gauge needle. Following inoculation, the mice were returned to microisolator cages.
Following inoculation, the tumors were allowed to grow to about 100 mm^3 or 500 mm^3 prior to randomization. For efficacy studies, animals with tumors of approximately 100 mm^3 were used. The typical number of days required for tumors to reach 100 mm^3 was 9 to 11 days. The tumor of each animal was measured and animals with tumors ranging between 100 and 200 mm^3 were included in the study. For tolerability and regression studies, animals with tumors of approximately 500 mm^3 (range 300-500 mm^3) were used. The typical number of days required for tumors to reach 500 mm^3 was 20 to 22 days. The animals were then distributed randomly into various cages and the cages were randomly assigned to vehicle, positive control or test article groups. All of the mice were tagged with metal ear tags on the right ear. A typical efficacy study group consisted of 8 to 10 animals. Tolerability study group consisted of 4-6 animals.
The formulations were homogenized using a Teflon™ pestle and mortar (Potter-Elvehjem tissue grinder). Between the doses, the formulated compound was stored under constant stirring using a magnetic stirrer at 4° C. in the dark. The test article and vehicle were administered by oral gavage. […] Sterile syringes and gavage needles were used for compound administration. All the procedures including injections were done in biosafety cabinets sprayed with 70% ethanol prior to use.
Tumor volumes were determined prior to the initiation of treatment and were considered as the starting volumes. Thereafter, tumors were measured twice a week for the duration of the study. The long and short axes of each tumor were measured using a digital caliper in millimeters. The tumor volumes were calculated using the formula: width^2× length/2. The tumor volumes were expressed in cubic millimeters (mm^3).

Akt(S473) = assay: Phospho-Akt(S473) in PC3 cell lysates, MSD; assay type: cell-based, human; details: PC3, 1 hour exposure; read-out: p-Akt (S473) IC50
Excerpt: The direct substrate for TORC1 was 4E-BP 1(T46) and indirect downstream substrate was S6RP(S235/S236). The direct substrate for TORC2 was Akt(S473) and indirect downstream substrates measured were GSK3β(S9) and PRAS40(T246). Additionally, the phosphorylation status of Akt(T308), a phosphorylation site for PDK1 was monitored.
MSD® biomarker detection assays provide a rapid and convenient method for measuring the total and phosphorylated levels of protein targets within a single small volume sample. These assays are available in both single-plex and multiplex formats. In a single-plex assay, an antibody for a specific protein target is coated on one electrode (or spot) per well. […] MSD Read Buffer that provides the appropriate chemical environment for ECL is added and the plate is read using an MSD SECTOR™ Imager. […] The instrument measures intensity of the emitted light to afford a quantitative measure of the amount of phosphorylated Akt or S6RP present in the sample. […]
The assay plate was incubated with 150 μL of MSD Blocker A Solution for 1 hour with shaking at room temperature. […] Then 150 μL of 1×MSD Read Buffer T was added to each well. The plate was read on the SECTOR Imager plate reader. The Excel data was transferred to Activity Base and IC50 values were calculated.
All data was analyzed using XLfit from IDBS. […]

`CCN1C(=O)CNc2ncc(-c3ccc(-c4nc[nH]n4)nc3C)nc21` [Compound 2, 1-ethyl-7-(2-methyl-6-(1H-1,2,4-triazol-3-yl)pyridin-3-yl)-3,4-dihydropyrazino[2,3-b]pyrazin-2(1H)-one] was tested, and the “number of TUNEL-positive cells vs vehicle” value (PC3 tumors [1]) was “No significant change”.

For `CO[C@H]1CC[C@H](N2C(=O)CNc3ncc(-c4ccc(C(C)(C)O)nc4)nc32)CC1` [Compound 1, 7-(6-(2-hydroxypropan-2-yl)pyridin-3-yl)-1-((1r,4r)-4-methoxycyclohexyl)-3,4-dihydropyrazino-[2,3-b]pyrazin-2(1H)-one], the “tumor volume reduction compared with vehicle control” value (PC3 tumors [2]; 5 mg/kg BID) was 64.9%, the “tumor volume reduction compared with vehicle control” value (PC3 tumors [2]; 10 mg/kg BID) was 79.9% and the “tumor volume reduction compared to vehicle control” value (PC3 tumors [2]; 10 mg/kg QD oral) was 46.1%. For the same compound, the average tumor volume (PC3 tumors [2]; 10 mg/kg QD, Day 31 (vehicle 712)) was 383 mm^3, the “tumor inhibition compared to vehicle control” value (PC3 tumors [2]; 25 mg/kg Q2D) was 72% and the “tumor inhibition compared to vehicle control” value (PC3 tumors [2]; 25 mg/kg Q3D) was 61%. The average tumor volume (PC3 tumors [2]; 25 mg/kg QD group, Day 52 after 3 weeks without dosing) was “about 427 mm^3”, the tumor response (PC3 tumors [2]; 25 mg/kg QD oral, 3 weeks) was “Tumor regression” and the “tumor volume reduction compared to vehicle control” value (PC3 tumors [2]; 25 mg/kg QD oral) was 86.7%. The average tumor volume (PC3 tumors [2]; 25 mg/kg QD, Day 31 (158 on Day 11; vehicle 712)) was 123 mm^3, the “tumor volume at the end of the second cycle” value (PC3 tumors [2]; 25 mg/kg QD, second 3-week cycle) was “approximately 729 mm^3” and the “tumor inhibition compared to vehicle control” value (PC3 tumors [2]; 50 mg/kg Q3D) was 82%. The “tumor inhibition compared to vehicle control” value (PC3 tumors [2]; 50 mg/kg Q5D) was 61%, the “tumor inhibition compared to vehicle control” value (PC3 tumors [2]; 50 mg/kg Q7D) was 49% and the “lowest (minimal) efficacious dose” value (PC3 tumors [2]; BID, determined by 65% tumor volume inhibition) was 5 mg/kg. For the same compound, the tumor response (PC3 tumors [2]; regression study, 1 mg/kg BID, vs vehicle) was “significantly (p<0.01) slowed tumor growth”, the tumor response (PC3 tumors [2]; regression study, 5 mg/kg BID) was “stasis of tumor growth” and the tumor response (PC3 tumors [2]; regression study, 10 mg/kg BID) was “regression of PC3 tumors”. The average tumor volume (PC3 tumors [2]; regression study, 10 mg/kg BID, day 43 (482.2±12.6 on day 20)) was 343.6±32.6 mm^3, the tumor response (PC3 tumors [2]; regression study, 25 mg/kg Q2D) was “regression of tumors initially during the first 2 weeks of dosing” and the tumor volume (PC3 tumors [2]; regression study, 25 mg/kg Q2D, day 43 (475.1±19.6 on day 20)) was 549.4±45.7 mm^3. It also gave an IC50 (Akt(S473)) of 10 nM.
